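These data come from cells grown in 96-well plates and exposed to compound for 48 hours at five concentrations. Abbreviation: GI50, concentration required for 50% inhibition of growth. TGI denotes the concentration required for complete inhibition of growth.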
Columns and labels:
Assay in all cases: DTP human tumour cell line panel, 48 h
SNB-75 CNS = system: SNB-75 CNS
MCF7 breast = system: MCF7 breast
CCRF-CEM leukemia = system: CCRF-CEM leukemia
SK-MEL-28 melanoma = system: SK-MEL-28 melanoma
K-562 leukemia = system: K-562 leukemia
OVCAR-8 ovarian = system: OVCAR-8 ovarian
A498 renal = system: A498 renal
HT29 colon = system: HT29 colon
UO-31 renal = system: UO-31 renal
HCC-2998 colon = system: HCC-2998 colon

Structure (SMILES) | TGI (SNB-75 CNS) [µM] | TGI (MCF7 breast) [µM] | TGI (CCRF-CEM leukemia) [µM] | TGI (SK-MEL-28 melanoma) [µM] | TGI (K-562 leukemia) [µM] | TGI (OVCAR-8 ovarian) [µM] | TGI (A498 renal) [µM] | TGI (HT29 colon) [µM] | TGI (UO-31 renal) [µM] | GI50 (SNB-75 CNS) [µM] | GI50 (MCF7 breast) [µM] | GI50 (SK-MEL-28 melanoma) [µM] | GI50 (K-562 leukemia) [µM] | GI50 (OVCAR-8 ovarian) [µM] | GI50 (HT29 colon) [µM] | GI50 (UO-31 renal) [µM] | TGI (HCC-2998 colon) [µM] | GI50 (HCC-2998 colon) [µM] | GI50 (CCRF-CEM leukemia) [µM] | GI50 (A498 renal) [µM]
COc1ccc(/C(Cl)=C(\C=O)c2ccc([N+](=O)[O-])cc2)cc1OC | 20 | 36.8 | > 24.7 | 30.5 | > 93.3 | > 86 | > 54.4 | > 30.5 | 28.9 | – | – | – | – | – | – | – | – | – | – | –
O=C(OCc1ccccc1)N1CCN(/[N+]([O-])=N/Oc2ccc([N+](=O)[O-])cc2[N+](=O)[O-])CC1 | 32.7 | 8.87 | – | 31.1 | > 100 | > 100 | – | > 100 | > 100 | 15.6 | 2.84 | 13.2 | 4.07 | 31.5 | 10.4 | 3.82 | – | – | – | –
O=C(O)C1C(C(=O)Nc2ccc3c(c2)Cc2ccccc2-3)C2(Cl)C(Cl)=C(Cl)C1(Cl)C2(Cl)Cl (centres undefined) | 91.8 | 62.2 | 38 | 46.3 | 13.5 | 43 | 47.7 | 41.7 | 55.5 | – | – | – | – | – | – | – | 34.8 | – | – | –
CCCCCC(O)C1C(=O)OC(C)C(O)/C=C/C=C/C=C/C=C\C=C(\C)C(O)CC(O)CC(O)CC(O)CC(O)CC(O)CC1O (centres undefined) | > 100 | > 100 | > 100 | > 100 | > 100 | > 100 | > 100 | > 100 | > 100 | > 100 | > 100 | > 100 | > 100 | > 100 | > 100 | > 100 | > 100 | > 100 | > 100 | > 100
Cc1ccc(NC(=O)c2cccc([N+](=O)[O-])c2O)c([N+](=O)[O-])c1 | 29.4 | – | > 100 | 32 | > 100 | 30.1 | 31.5 | 69.9 | 45.4 | – | – | – | – | – | – | – | 29.5 | – | – | –
Cc1ccc(C2NC(=S)NC3=C2CCOc2c3ccc3ccccc23)cc1 (centres undefined) | > 100 | > 100 | > 100 | > 100 | > 100 | > 100 | – | > 100 | > 100 | > 100 | 32.4 | 57.4 | 4.36 | > 100 | 8 | > 100 | > 100 | 10.8 | > 100 | –
COC1(OC)CC2C=C(S(=O)(=O)c3ccccc3)C1N(Cc1ccccc1)C2=O (centres undefined) | > 100 | – | 90.9 | > 100 | > 100 | 64.7 | 57.1 | 93.7 | > 100 | – | – | – | – | – | – | – | > 100 | – | – | –
ClC1=C(Cl)C(Cl)=C(Cl)C1=C/C=C/c1ccccc1 | 1.85 | 0.664 | – | 0.597 | > 100 | 1.92 | 1.22 | 1.16 | 0.756 | 0.251 | 0.139 | 0.249 | 0.439 | 0.266 | 0.319 | 0.201 | 0.464 | 0.229 | 0.306 | 0.59
CCN(CC)c1cc(/C=C/c2ccc(OC)c(OC)c2)nc2cc(F)c(F)cc12 | 2.89 | > 100 | 11 | > 100 | – | 80.8 | 6.2 | – | > 100 | 1.39 | 15.9 | 14.9 | – | 5.54 | – | 38.7 | > 100 | 70.6 | 3.18 | 1.95
NC(=O)C1=NNc2ccccc2C(=O)N1c1ccccc1 | > 100 | > 100 | > 100 | > 100 | – | > 100 | > 100 | > 100 | > 100 | – | – | – | – | – | – | – | – | – | – | –
CCCCCCCC/C=C/CCCCCCCCC1=NCCN1CCO | 15.3 | 4.02 | 4.96 | 24.4 | – | 21.7 | 15.5 | 5.21 | 3.75 | 2.8 | 1.77 | 10.5 | – | 3.88 | 2.16 | 1.76 | 34.2 | 14.2 | 1.91 | 2.34
CSC(C1c2ccccc2N(C)C2=NC(=O)N(C)C(=O)C21Cl)S(=O)(=O)c1ccc(C)cc1 (centres undefined) | 75.9 | – | 28.3 | 75.4 | 43.5 | 46.3 | > 100 | > 100 | > 100 | – | – | – | – | – | – | – | > 100 | – | – | –
COc1cc2c(cc1OC)-c1cc3cc(OC)c(OC)cc3n1CC2 | 50.5 | – | > 100 | > 100 | > 100 | 73.1 | 50.6 | 56.3 | > 100 | – | – | – | – | – | – | – | > 100 | – | – | –
Cn1c2c(c3ccccc31)C1CCCCC1C1C(=O)NC(=O)C21 (centres undefined) | 71.3 | – | > 100 | > 100 | > 100 | > 100 | > 100 | > 100 | > 100 | – | – | – | – | – | – | – | > 100 | – | – | –
OCCCN=NNc1ccc(-c2nc3ccccc3[nH]2)cc1 | 38.6 | 2.4 | > 100 | 6.46 | 84.9 | > 100 | – | – | 78.1 | 6.07 | 0.0891 | 2.47 | 16.6 | 3.12 | – | 23.9 | – | – | 0.644 | –
COc1ccc(/C(=N/NC(=O)NN)C(c2ccc(OC)cc2)C2(O)CNc3c(Cl)cc(Cl)cc32)cc1 (centres undefined) | > 100 | – | > 100 | > 100 | > 100 | > 100 | > 100 | > 100 | > 100 | – | – | – | – | – | – | – | > 100 | – | – | –
CC(C)C1OC(=O)C=C1Sc1ccccc1 (centres undefined) | > 100 | > 100 | > 100 | > 100 | > 100 | > 100 | > 100 | > 100 | – | – | – | – | – | – | – | – | > 100 | – | – | –
